One compound from US20130252983A1, “ACTIVATING PHOSPHORYLATION SITE ON GLUTAMINASE C” (CORNELL UNIVERSITY, priority 2010, published 2013) can be followed below.

The target in experiment [1] is T1, GA activity of NIH 3T3 cells stably expressing Dbl or Cdc42(F28L) (Mus musculus, UniProt D3Z7P3).
T1 construct: endogenous in cells; host or cells: NIH 3T3 cells stably expressing Dbl or Cdc42(F28L); mitochondrial fraction
T1 sequence (D3Z7P3 55-603 isoform D3Z7P3-2): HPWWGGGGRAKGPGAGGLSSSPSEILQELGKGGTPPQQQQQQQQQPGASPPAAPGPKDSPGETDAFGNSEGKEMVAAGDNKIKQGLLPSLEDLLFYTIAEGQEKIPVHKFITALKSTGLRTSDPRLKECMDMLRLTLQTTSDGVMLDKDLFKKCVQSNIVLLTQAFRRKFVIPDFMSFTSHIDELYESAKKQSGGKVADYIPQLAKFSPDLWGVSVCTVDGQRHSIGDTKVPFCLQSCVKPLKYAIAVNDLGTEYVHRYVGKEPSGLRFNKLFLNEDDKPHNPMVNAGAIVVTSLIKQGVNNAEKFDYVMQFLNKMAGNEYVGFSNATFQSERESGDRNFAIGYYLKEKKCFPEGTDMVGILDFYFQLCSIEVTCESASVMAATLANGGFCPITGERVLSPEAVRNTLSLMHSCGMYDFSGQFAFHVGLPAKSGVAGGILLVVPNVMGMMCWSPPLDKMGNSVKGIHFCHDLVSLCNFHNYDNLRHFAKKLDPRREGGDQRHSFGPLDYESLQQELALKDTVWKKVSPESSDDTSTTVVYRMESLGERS
Nature of the experiment: GA activity in mitochondrial fractions of treated transformed NIH 3T3 cells. The format is cell-based. The note with it: 10 μM, 48 hours. How it is done: 100%=620 moles of glutamine hydrolyzed per minute per mole of enzyme. Data represent the average of 3 experiments (±s.d.). […] Following precipitation of the beads and re-suspension, the samples were analyzed by Western blotting with anti-V5 antibody. […] Data represent the average of 3 experiments (±s.d.). […] Data represent the average of 3 experiments (±s.d.). […] Data represent the average of 3 experiments (±s.d.). FIG. 3E NIH 3T3 cells transiently expressing Dbl were assayed for focus formation in the presence of 10 μM 968 alone or together with 7 mM dimethyl α-ketoglutarate. […] 100%=680 nM glutamine hydrolyzed per minute per 10^5 cells. Data are the average of 3 experiments (±s.d.). […] 100%=750 nM glutamine hydrolyzed per minute per 10^5 cells. Data represent the average of 3 experiments (±s.d.).
(§1) FIGS. 4A-E illustrate the role of glutaminase C activity in cellular transformation. […] Data represent the average of 3 experiments (±s.d.). […] Data represent the average of 3 experiments (±s.d.). […] 100% represents the activity measured in untreated Dbl-transformed cells. The data represent the average of 2 experiments. […] 100% represents the activity measured in untreated SKBR3 cells. The data represent the average of 2 experiments. […] Data represent the average of 3 experiments (±s.d.).
FIGS. 11A-E illustrate the effects of different treatments on GA activity. […] The addition of Pi stimulated the GA activity in control 3T3 cells, Dbl-expressing cells, and Cdc42(F28L)-expressing cells by ˜6-fold, 2-fold, and 3-fold, respectively. 100% represents the Pi-stimulated activity measured for Dbl-transformed cells that were not treated with 968. Data is the average of 3 experiments (±s.d.). […] The addition of Pi stimulated the GA activity of HMECs, MDA-MB231 cells, and SKBR3 cells by ˜5-fold, 2-fold, and 1.4-fold, respectively. 100% represents the Pi-stimulated activity for SKBR3 cells that were not treated with 968. Data are the average of 3 experiments (±s.d.). […] Mitochondrial fractions were prepared from equal numbers of cells and assayed for GA activity in the presence or absence of 133 mM Pi. The data are plotted as the percentage of GA activity measured for untreated SKBR3 cells and represent the average of 2 experiments. […] 100% represents the Pi-stimulated activity measured for untreated Dbl-transformed cells. The data represent the average of 2 experiments. […] 100% represents the Pi-stimulated activity for untreated SKBR3 cells. The data represent the average of 2 experiments.
Dbl expressing NIH 3T3 cells were treated for 48 hours in the presence or absence of 968 (10 μM), Bay 11-7082 (2 μM) or Rapamycin (100 nM). Mitochondria were then isolated from the treated cells and assayed for glutaminase activity in the absence or presence of phosphate.
Mitochondrial preparations were obtained using the mitochondria isolation kit from QIAGEN (Cat #37612). A suspension containing 2×10^7 cells was transferred into a 50 ml conical tube and centrifuged at 500×g for 10 minutes at 4° C. The pellets were resuspended in 2 ml of ice-cold lysis buffer (supplied by QIAGEN) and incubated for 10 minutes at 4° C. using an end-over-end shaker. The lysates were centrifuged at 1000×g for 10 minutes at 4° C., and the pellets were resuspended in a buffer supplied by the manufacturer and disrupted completely by using a blunt-ended, 23-gauge needle and a syringe, followed by centrifugation at 6000×g for 20 minutes at 4° C. […]

In experiment [2] the target is T2, V5-tagged wild-type GAC (Mus musculus, UniProt D3Z7P3).
T2 construct: expressed in transfected cells; host or cells: NIH 3T3 cells (stably expressing Dbl, or parental), transient transfection
T2 sequence (D3Z7P3 55-603 isoform D3Z7P3-2 limits assumed): T1 sequence (D3Z7P3 55-603 isoform D3Z7P3-2)
Nature of the experiment: Glutaminase activity of V5-GAC immunoprecipitated from treated Dbl-transformed cells. The format is cell-based. The note with it: 10 μM, 48 hours.
Source text: as §1
NIH 3T3 cells stably expressing oncogenic Dbl were transiently transfected with DNA encoding VS-tagged GAC, and cells were treated with either 968 or BA-968 (10 μM) as indicated for 48 hours. The cells were then harvested and the ectopically expressed GAC was isolated by immunoprecipitation via the V5 tag. The samples were then assayed for glutaminase activity in the absence of phosphate (top panel) and the relative expression levels of V5-GAC was determined by Western blotting using an anti-V5 antibody (bottom panel).
Next the effect of the substitution of an alanine for a serine at amino acid 103 on the enzymatic activity of GAC was examined, as well as its sensitivity to the small molecule, 968. […] Following transfection, the cells were treated for 48 hours with 968 (10 μM) and then harvested. […]

The structures appear in SMILES notation. “Also recorded” adds a separate entry of the source.

In the case of `CN(C)c1ccc(C2Nc3ccc4ccccc4c3C3=C2C(=O)CC(C)(C)C3)cc1Br` (stereo not shown) [Compound 968, 5-[3-bromo-4-(dimethylamino)phenyl]-2,2-dimethyl-2,3,5,6-tetrahydrobenzo[a]], the “GA activity of transformed cells” value in experiment [1] was “inhibits their GA activity”. Further, the “sensitivity of basal versus phosphate-stimulated GA activity” value in experiment [1] (with or without 133 mM Pi) is reported as “basal activity being more sensitive than the phosphate-stimulated activity”. Further, the “basal glutaminase activity of wild-type GAC” value in experiment [2] is recorded as “susceptible to treatment”. Also, the “GA activity of immunoprecipitated V5-GAC” value in experiment [2] (absence of phosphate) is “inhibited; also recorded: effective inhibitors of GAC activity”.
